In ChEMBL document CHEMBL1201862, “PubChem BioAssay data set” (2004):
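Each compound was tested at five concentrations against cells in 96-well plates for 48 hours. GI50 marks 50% less growth.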 The source made the active and inactive calls. No stated cut-off is given here; in the data, active = GI50 up to about 1.1 µM and inactive = higher.

Key:
Test in all cases: NCI tumour cell line growth inhibition, 48 h
[1] = system: A498
[2] = system: A549
[3] = system: HCC 2998
[4] = system: K562
[5] = system: MDA-N
[6] = system: MOLT-4
[7] = system: Malme-3M
[8] = system: NCI-H23
[9] = system: PC-3
[10] = system: SF-295
[11] = system: SF-539
[12] = system: SNB-19
[13] = system: SR
[14] = system: SW-620
[15] = system: TK-10
[16] = system: U-251
[17] = system: NCI-H522
[18] = system: SK-MEL-2
[19] = system: UO-31
[20] = system: BT-549

SMILES	GI50 [1]	GI50 [2]	GI50 [3]	GI50 [4]	GI50 [5]	GI50 [6]	GI50 [7]	GI50 [8]	GI50 [9]	GI50 [10]	GI50 [11]	GI50 [12]	GI50 [13]	GI50 [14]	GI50 [15]	GI50 [16]	GI50 [17]	GI50 [18]	GI50 [19]	GI50 [20]
CCCCCCCCCCCCCCCCCC(=O)OCC(COC1OC(COP(=O)(O)O)C(O)C(O)C1O)OC(=O)CCCCCCCCCCCCCCCCC (stereo not given)	6.03 µM (inactive)	7.46 µM (inactive)	7.29 µM (inactive)	9.89 µM (inactive)	10.7 µM (inactive)	7.5 µM (inactive)	7.52 µM (inactive)	7.78 µM (inactive)	7.62 µM (inactive)	4.02 µM (inactive)	9.44 µM (inactive)	8 µM (inactive)	0.0227 µM (active)	10.3 µM (inactive)	10.4 µM (inactive)	6.71 µM (inactive)				
CN(C)c1ccc(C(=C(c2ccc(N(C)C)cc2)c2ccc(N(C)C)cc2)c2ccc(N(C)C)cc2)cc1	18.6 µM (inactive)	16.3 µM (inactive)	16 µM (inactive)	8.09 µM (inactive)		14.6 µM (inactive)	15 µM (inactive)	17 µM (inactive)		13.9 µM (inactive)	13.8 µM (inactive)	13.8 µM (inactive)	9.04 µM (inactive)	1.87 µM (inactive)	16 µM (inactive)	13.9 µM (inactive)	0.301 µM (active)	12.1 µM (inactive)	17.4 µM (inactive)	
CCCCCCCCCCCCC/C=C/[C@@H](O)[C@H](COC1OC(CO)C(OC2OC(CO)C(O)C(OC3(C(=O)O)CC(O)C(NC(C)=O)C(C(O)C(O)CO)O3)C2O)C(O)C1O)N=[N+]=[N-] (stereo not given in full)	47.2 µM (inactive)	> 100 µM (inactive)	> 100 µM (inactive)	27.4 µM (inactive)	> 100 µM (inactive)	21.7 µM (inactive)	21.8 µM (inactive)	> 100 µM (inactive)	24.2 µM (inactive)	26.4 µM (inactive)	17.5 µM (inactive)	34 µM (inactive)		26.7 µM (inactive)	> 100 µM (inactive)	19.9 µM (inactive)	32.5 µM (inactive)	17.5 µM (inactive)	23 µM (inactive)	
Cc1cc2c(c3oc(C4(C)OC4C4OC4C)cc(=O)c13)C(=O)c1c(O)c(C3CC(C)(N(C)C)C(O)C(C)O3)cc(C3CC(N(C)C)C(O)C(C)O3)c1C2=O (stereo not given)		0.0025 µM (active)	0.00014 µM (active)	0.0025 µM (active)		0.0025 µM (active)		0.0025 µM (active)	6.52e-05 µM (active)	4.68e-05 µM (active)	0.000531 µM (active)	0.0025 µM (active)	6.17e-05 µM (active)	0.0025 µM (active)	0.000197 µM (active)	4.1e-05 µM (active)	0.00275 µM (active)		0.000557 µM (active)	0.00011 µM (active)
COc1ccc2[nH]c3c([N+](=O)[O-])ccc(NCCN(C)C)c3/c(=N/CCN(C)C)c2c1		1.66 µM (inactive)	0.867 µM (active)	1.22 µM (inactive)	1.75 µM (inactive)	0.172 µM (active)	2.58 µM (inactive)	1.49 µM (inactive)	0.676 µM (active)	1.58 µM (inactive)			0.117 µM (active)	1.04 µM (active)	3.13 µM (inactive)					
COc1ccc2c(=O)c(-c3cc4c(cc3OC)OCO4)coc2c1	> 100 µM (inactive)	> 100 µM (inactive)	> 100 µM (inactive)			> 100 µM (inactive)		> 100 µM (inactive)	> 100 µM (inactive)	37.7 µM (inactive)	> 100 µM (inactive)	52 µM (inactive)	> 100 µM (inactive)	> 100 µM (inactive)	56.1 µM (inactive)	59.2 µM (inactive)	> 100 µM (inactive)	> 100 µM (inactive)	> 100 µM (inactive)	> 100 µM (inactive)
COc1cc2cnc(-c3ccccc3)cc2cc1OC	0.252 µM (active)	28.5 µM (inactive)		30.1 µM (inactive)		20 µM (inactive)	27.9 µM (inactive)	20.9 µM (inactive)	23 µM (inactive)	19.5 µM (inactive)	31.1 µM (inactive)	24.9 µM (inactive)	16.8 µM (inactive)	32.4 µM (inactive)	25.7 µM (inactive)	19.8 µM (inactive)	20 µM (inactive)	23 µM (inactive)	29.5 µM (inactive)	23.2 µM (inactive)
C[n+]1c2n(c3nc(N)[nH]c(=O)c31)C1OC(C2)C(O)C1O (stereo not given)	> 100 µM (inactive)	> 100 µM (inactive)	> 100 µM (inactive)	> 100 µM (inactive)		> 100 µM (inactive)	> 100 µM (inactive)	> 100 µM (inactive)		> 100 µM (inactive)	> 100 µM (inactive)	> 100 µM (inactive)	> 100 µM (inactive)	> 100 µM (inactive)	> 100 µM (inactive)	> 100 µM (inactive)	> 100 µM (inactive)	> 100 µM (inactive)	> 100 µM (inactive)	
CCOP(=O)(OCC)C(C(=O)OC)C(=O)C(=O)Nc1cccc([N+](=O)[O-])c1 (stereo not given)	> 100 µM (inactive)	> 100 µM (inactive)	> 100 µM (inactive)	> 100 µM (inactive)		> 100 µM (inactive)	> 100 µM (inactive)	> 100 µM (inactive)		> 100 µM (inactive)	> 100 µM (inactive)	> 100 µM (inactive)	> 100 µM (inactive)	> 100 µM (inactive)	> 100 µM (inactive)	> 100 µM (inactive)	> 100 µM (inactive)	> 100 µM (inactive)	> 100 µM (inactive)	
COC1=CCC2=C(CCN(C(=O)C3CCC3)C2Cc2ccc(OC)c(O)c2)C1 (stereo not given)	19.4 µM (inactive)	31.6 µM (inactive)	15.1 µM (inactive)	4.45 µM (inactive)	2.7 µM (inactive)	12.7 µM (inactive)	26.6 µM (inactive)	10 µM (inactive)	23.6 µM (inactive)	15.9 µM (inactive)	30.5 µM (inactive)	35.8 µM (inactive)	5.69 µM (inactive)	12.8 µM (inactive)	17.5 µM (inactive)	28.9 µM (inactive)	16.6 µM (inactive)	24.2 µM (inactive)		
CC1(C)OCN(c2ccc(S(N)(=O)=O)cc2)Cn2c1nc1ccccc12	> 100 µM (inactive)	> 100 µM (inactive)	> 100 µM (inactive)	> 100 µM (inactive)		> 100 µM (inactive)	> 100 µM (inactive)	> 100 µM (inactive)		> 100 µM (inactive)	> 100 µM (inactive)	> 100 µM (inactive)	> 100 µM (inactive)	> 100 µM (inactive)	> 100 µM (inactive)	> 100 µM (inactive)	> 100 µM (inactive)	> 100 µM (inactive)	> 100 µM (inactive)	
Cc1nn(C(=O)Cc2ccccc2)c2c1C(c1ccccc1O)SC(=N)N2 (stereo not given)	> 100 µM (inactive)	> 100 µM (inactive)	> 100 µM (inactive)	> 100 µM (inactive)		> 100 µM (inactive)	> 100 µM (inactive)	> 100 µM (inactive)	> 100 µM (inactive)	> 100 µM (inactive)	> 100 µM (inactive)	> 100 µM (inactive)	> 100 µM (inactive)	> 100 µM (inactive)	> 100 µM (inactive)		> 100 µM (inactive)		> 100 µM (inactive)	> 100 µM (inactive)
